Test results: patent US9593149B2, “Amylin and calcitonin receptor agonist” (Novo Nordisk A/S, priority 2014, dated 2017)
Converted amounts (≈) assume the structure as drawn. Numbered stars: 1 amine (or outer) side, 2 acyl side, 3 side chain; on linkers, the order of the positions; unused ones are H or OH. Peptide text beside a SMILES is read from it. * marks the point of attachment. C20 diacid = O=C(O)CCCCCCCCCCCCCCCCCCC(=O)*; C18 diacid = O=C(O)CCCCCCCCCCCCCCCCC(=O)*; γGlu = O=C(O)[C@H](CCC(=O)[*:2])N[*:1]

Test: Assay (IV) determination of solubility
Type: physicochemical
Experimental: Assay (IV)—Determination of Solubility
The mimylin peptide was dissolved in water at ˜500 nmol/ml and mixed 1:1 with a series of buffers (100 mM glycylglycine pH 3.0, 100 mM glycylglycine pH 4.0, 100 mM glycylglycine pH 5.0, 100 mM bistrispropane pH 6.0, 100 mM bistrispropane pH 6.5, 100 mM bistrispropane pH 7.0, 100 mM bistrispropane pH 7.5, 100 mM bistrispropane pH 8.0).

| Solubility (pH 3.0) | Solubility (pH 4.0) | Solubility (pH 5.0) | Solubility (pH 6.0) | Solubility (pH 6.5) | Solubility (pH 7.0) | Solubility (pH 7.5) | Solubility (pH 8.0) | solubility at 18 h (pH 4.0) [µM] | solubility at 18 h (pH 5.0) [µM] | SMILES |
| --- | --- | --- | --- | --- | --- | --- | --- | --- | --- | --- |
| ≧200 μM | ≧200 μM | ≧200 μM | ≧200 μM | ≧200 μM | ≧200 μM | ≧200 μM | ≧200 μM |  |  | CC(C)C[C@H](NC(=O)CNC(=O)[C@H](CO)NC(=O)[C@H](C)NC(=O)CC[C@H](NC(=O)CCCCCCCCCCCCCCCCCCC(=O)O)C(=O)O)C(=O)N[C@@H](CO)C(=O)N[C@H](C(=O)N[C@@H](C)C(=O)N[C@@H](C)C(=O)N[C@@H](CC(C)C)C(=O)NCC(=O)N[C@@H](CCCNC(=N)N)C(=O)N[C@@H](CC(C)C)C(=O)N[C@@H](CO)C(=O)N[C@@H](C)C(=O)N[C@@H](CCC(=O)O)C(=O)N[C@@H](CC(C)C)C(=O)N[C@@H](Cc1cnc[nH]1)C(=O)N[C@@H](CCC(=O)O)C(=O)N[C@@H](CC(C)C)C(=O)N[C@@H](C)C(=O)N[C@H](C(=O)N[C@@H](Cc1ccc(O)cc1)C(=O)N1CCC[C@H]1C(=O)N[C@@H](CCCNC(=N)N)C(=O)N[C@H](C(=O)N[C@@H](CCC(=O)O)C(=O)N[C@H](C(=O)NCC(=O)N[C@@H](CO)C(=O)NCC(=O)N[C@@H](CO)C(=O)N1CCC[C@H]1C(N)=O)[C@@H](C)O)[C@@H](C)O)[C@@H](C)O)[C@@H](C)O [compound 79, [N-terminal(C20 diacid-gGlu), des1, 4G, 23Y, 30S, 31G]mimylin] ({C20 diacid-γGlu}-ASGLSTAALGRLSAELHELATYPRTETGSGSP-NH2) |
| ≧200 μM | ≧200 μM |  | ≧200 μM | ≧200 μM | ≧200 μM | ≧200 μM | ≧200 μM |  | 10 (≈ 37.9 µg/mL) | CC(C)C[C@H](NC(=O)[C@H](C)NC(=O)[C@H](C)NC(=O)[C@@H](NC(=O)[C@H](CO)NC(=O)[C@H](CC(C)C)NC(=O)[C@H](CCC(=O)O)NC(=O)[C@H](CO)NC(=O)[C@H](C)NC(=O)CC[C@H](NC(=O)CCCCCCCCCCCCCCCCCCC(=O)O)C(=O)O)[C@@H](C)O)C(=O)NCC(=O)N[C@@H](CCCNC(=N)N)C(=O)N[C@@H](CC(C)C)C(=O)N[C@@H](CO)C(=O)N[C@@H](C)C(=O)N[C@@H](CCC(=O)O)C(=O)N[C@@H](CC(C)C)C(=O)N[C@@H](Cc1cnc[nH]1)C(=O)N[C@@H](CCC(=O)O)C(=O)N[C@@H](CC(C)C)C(=O)N[C@@H](C)C(=O)N[C@H](C(=O)N[C@@H](Cc1ccc(O)cc1)C(=O)N1CCC[C@H]1C(=O)N[C@@H](CCCNC(=N)N)C(=O)N[C@H](C(=O)N[C@@H](CCC(=O)O)C(=O)N[C@H](C(=O)NCC(=O)N[C@@H](CO)C(=O)NCC(=O)N[C@@H](CO)C(=O)N[C@@H](Cc1ccc(O)cc1)C(N)=O)[C@@H](C)O)[C@@H](C)O)[C@@H](C)O [compound 80, [N-terminal(C20 diacid-gGlu), des1, 23Y, 30S, 31G, 33Y]mimylin] ({C20 diacid-γGlu}-ASELSTAALGRLSAELHELATYPRTETGSGSY-NH2) |
| ≧200 μM | ≧200 μM |  | ≧200 μM | ≧200 μM | ≧200 μM | ≧200 μM | ≧200 μM |  | 1 (≈ 3.74 µg/mL) | CC(C)C[C@H](NC(=O)[C@H](C)NC(=O)[C@H](C)NC(=O)[C@@H](NC(=O)[C@H](CO)NC(=O)[C@H](CC(C)C)NC(=O)[C@H](CCC(=O)O)NC(=O)[C@H](CO)NC(=O)[C@H](C)NC(=O)CC[C@H](NC(=O)CCCCCCCCCCCCCCCCCCC(=O)O)C(=O)O)[C@@H](C)O)C(=O)NCC(=O)N[C@@H](CCCNC(=N)N)C(=O)N[C@@H](CC(C)C)C(=O)N[C@@H](CO)C(=O)N[C@@H](C)C(=O)N[C@@H](CCC(=O)O)C(=O)N[C@@H](CC(C)C)C(=O)N[C@@H](Cc1cnc[nH]1)C(=O)N[C@@H](CCC(=O)O)C(=O)N[C@@H](CC(C)C)C(=O)N[C@@H](CO)C(=O)N[C@H](C(=O)N[C@@H](Cc1ccc(O)cc1)C(=O)N1CCC[C@H]1C(=O)N[C@@H](CCCNC(=N)N)C(=O)N[C@H](C(=O)N[C@@H](CCC(=O)O)C(=O)N[C@H](C(=O)NCC(=O)N[C@@H](CO)C(=O)NCC(=O)N[C@@H](CO)C(=O)N1CCC[C@H]1C(N)=O)[C@@H](C)O)[C@@H](C)O)[C@@H](C)O [compound 82, [N-terminal(C20 diacid-gGlu), des1, 21S, 23Y, 30S, 31G]mimylin] ({C20 diacid-γGlu}-ASELSTAALGRLSAELHELSTYPRTETGSGSP-NH2) |
| ≧200 μM | ≧200 μM | ≧200 μM | ≧200 μM | ≧200 μM | ≧200 μM | ≧200 μM | ≧200 μM |  |  | CC(C)C[C@H](NC(=O)[C@H](C)NC(=O)[C@H](C)NC(=O)[C@@H](NC(=O)[C@H](CO)NC(=O)[C@H](CC(C)C)NC(=O)[C@H](CCC(=O)O)NC(=O)[C@H](CO)NC(=O)[C@H](C)NC(=O)[C@H](C)NC(=O)[C@H](CCC(=O)O)NC(=O)CC[C@H](NC(=O)CCCCCCCCCCCCCCCCCCC(=O)O)C(=O)O)[C@@H](C)O)C(=O)NCC(=O)N[C@@H](CCCNC(=N)N)C(=O)N[C@@H](CC(C)C)C(=O)N[C@@H](CO)C(=O)N[C@@H](C)C(=O)N[C@@H](CCC(=O)O)C(=O)N[C@@H](CC(C)C)C(=O)N[C@@H](Cc1cnc[nH]1)C(=O)N[C@@H](CCC(=O)O)C(=O)N[C@@H](CC(C)C)C(=O)N[C@@H](C)C(=O)N[C@H](C(=O)N[C@@H](Cc1ccc(O)cc1)C(=O)N1CCC[C@H]1C(=O)N[C@@H](CCCNC(=N)N)C(=O)N[C@H](C(=O)N[C@@H](CCC(=O)O)C(=O)N[C@H](C(=O)NCC(=O)N[C@@H](CO)C(=O)NCC(=O)N[C@@H](CO)C(=O)N1CCC[C@H]1C(N)=O)[C@@H](C)O)[C@@H](C)O)[C@@H](C)O [compound 83, [N-terminal(C20 diacid-gGlu), −1E, 1A, 23Y, 30S, 31G]mimylin] ({C20 diacid-γGlu}-EAASELSTAALGRLSAELHELATYPRTETGSGSP-NH2) |

The next lines start with the compound.

| SMILES | Solubility (pH 3.0) | Solubility (pH 4.0) | Solubility (pH 5.0) | Solubility (pH 6.0) | Solubility (pH 6.5) | Solubility (pH 7.0) | Solubility (pH 7.5) | Solubility (pH 8.0) | solubility at 18 h (pH 4.0) [µM] | solubility at 18 h (pH 5.0) [µM] |
| --- | --- | --- | --- | --- | --- | --- | --- | --- | --- | --- |
| CC(C)C[C@H](NC(=O)[C@H](CCC(=O)O)NC(=O)[C@H](Cc1cnc[nH]1)NC(=O)[C@H](CC(C)C)NC(=O)[C@H](CCC(=O)O)NC(=O)[C@H](C)NC(=O)[C@H](CO)NC(=O)[C@H](CC(C)C)NC(=O)[C@H](CCCNC(=N)N)NC(=O)CNC(=O)[C@H](CC(C)C)NC(=O)[C@@H](NC(=O)[C@H](C)NC(=O)[C@@H](NC(=O)[C@H](CO)NC(=O)[C@H](CC(C)C)NC(=O)[C@H](CCC(=O)O)NC(=O)[C@H](CO)NC(=O)[C@H](C)NC(=O)CC[C@H](NC(=O)CCCCCCCCCCCCCCCCC(=O)O)C(=O)O)[C@@H](C)O)C(C)C)C(=O)N[C@@H](C)C(=O)N[C@H](C(=O)N[C@@H](CC(C)C)C(=O)N1CCC[C@H]1C(=O)N[C@@H](CCCNC(=N)N)C(=O)N[C@H](C(=O)N[C@@H](CCC(=O)O)C(=O)N[C@H](C(=O)NCC(=O)N[C@@H](CO)C(=O)NCC(=O)N[C@@H](CO)C(=O)N1CCC[C@H]1C(N)=O)[C@@H](C)O)[C@@H](C)O)[C@@H](C)O [compound 76, [N-terminal(C18 diacid-gGlu), des1, 9V, 30S, 31G]mimylin] ({C18 diacid-γGlu}-ASELSTAVLGRLSAELHELATLPRTETGSGSP-NH2) | ≧200 μM | ≧200 μM | ≧200 μM | ≧200 μM | ≧200 μM | ≧200 μM | ≧200 μM | ≧200 μM |  |  |
| CC[C@H](C)[C@H](NC(=O)[C@H](C)NC(=O)[C@@H](NC(=O)[C@H](CO)NC(=O)[C@@H](NC(=O)[C@H](CCC(=O)O)NC(=O)[C@H](CO)NC(=O)[C@H](C)NC(=O)[C@H](CCC(=O)O)NC(=O)CCCCCCCCCCCCCCCCC(=O)O)[C@@H](C)CC)[C@@H](C)O)C(=O)N[C@H](C(=O)NCC(=O)N[C@@H](CCCNC(=N)N)C(=O)N[C@@H](CC(C)C)C(=O)N[C@@H](CO)C(=O)N[C@@H](C)C(=O)N[C@@H](CCC(=O)O)C(=O)N[C@@H](CC(C)C)C(=O)N[C@@H](Cc1cnc[nH]1)C(=O)N[C@@H](CCC(=O)O)C(=O)N[C@H](C(=O)N[C@@H](C)C(=O)N[C@H](C(=O)N[C@@H](CC(C)C)C(=O)N1CCC[C@H]1C(=O)N[C@@H](CCCNC(=N)N)C(=O)N[C@H](C(=O)N[C@@H](CCC(=O)O)C(=O)N[C@H](C(=O)NCC(=O)N1CCC[C@H]1C(=O)N[C@@H](CCC(=O)O)C(=O)N[C@@H](CO)C(=O)N1CCC[C@H]1C(N)=O)[C@@H](C)O)[C@@H](C)O)[C@@H](C)O)[C@@H](C)CC)[C@@H](C)CC [compound 77, [N-terminal(C18 diacid), 5I, 9I, 10I, 20I]mimylin] ({C18 diacid}-EASEISTAIIGRLSAELHEIATLPRTETGPESP-NH2) | ≧200 μM |  |  | ≧200 μM | ≧200 μM | ≧200 μM | ≧200 μM | ≧200 μM | 7 (≈ 26.4 µg/mL) | 11 (≈ 41.5 µg/mL) |
| CC(C)C[C@H](NC(=O)[C@H](C)NC(=O)[C@H](C)NC(=O)[C@@H](NC(=O)[C@H](CO)NC(=O)[C@H](CC(C)C)NC(=O)[C@H](CCC(N)=O)NC(=O)[C@H](CO)NC(=O)[C@H](C)NC(=O)CC[C@H](NC(=O)CCCCCCCCCCCCCCCCC(=O)O)C(=O)O)[C@@H](C)O)C(=O)NCC(=O)N[C@@H](CCCNC(=N)N)C(=O)N[C@@H](CC(C)C)C(=O)N[C@@H](CO)C(=O)N[C@@H](C)C(=O)N[C@@H](CCC(=O)O)C(=O)N[C@@H](CC(C)C)C(=O)N[C@@H](Cc1cnc[nH]1)C(=O)N[C@@H](CCC(=O)O)C(=O)N[C@@H](CC(C)C)C(=O)N[C@@H](C)C(=O)N[C@H](C(=O)N[C@@H](CC(C)C)C(=O)N1CCC[C@H]1C(=O)N[C@@H](CCCNC(=N)N)C(=O)N[C@H](C(=O)N[C@@H](CCC(=O)O)C(=O)N[C@H](C(=O)NCC(=O)N[C@@H](CO)C(=O)NCC(=O)N[C@@H](CO)C(=O)N1CCC[C@H]1C(N)=O)[C@@H](C)O)[C@@H](C)O)[C@@H](C)O [compound 78, [N-terminal(C18 diacid-gGlu), des1, 4Q, 30S, 31G]mimylin] ({C18 diacid-γGlu}-ASQLSTAALGRLSAELHELATLPRTETGSGSP-NH2) | ≧200 μM | ≧200 μM | ≧200 μM | ≧200 μM | ≧200 μM | ≧200 μM | ≧200 μM | ≧200 μM |  |  |
